Results as given in US20070099259A1, “ELECTROCHEMICAL ASSAY FOR THE IDENTIFICATION OF MICROORGANISMS” (RAPID LABORATORY MICROSYSTEMS INC., priority 2003, published 2007).
Read-outs that look alike come from different tables or passages of the source.

Key:
[1] = tested on: Staphylococcus aureus ATCC 6538P; assay: Respiration assay (Example 1), electrochemical ferricyanide/DCIP mediator consumption; format: cell-based; settings: for Slope data: n=2
Description: (§1) The ferricyanide solution is added so that the final ferricyanide concentrations is 50 mM.
(§2) The bacterial suspensions were adjusted to a MacFarland Standard of 5.0 (5.0×10sup.8 cfu/mL) or an optical density of 1.2 measured at 625 nm and cell growth was stopped by cooling the bacterial suspension for a minimum of 15 min in an ice-bath.

E. faecalis [2] = assay: as above; format: cell-based, Enterococcus faecalis; settings: n=2
Description: as §1, §2

P. vulgaris ATCC6380 = assay: Relative respiratory activity with 22 effectors (Example 3); format: cell-based, Proteus vulgaris; settings: Proteus vulgaris; for activity at 20000 µM: effector 20 mM; for activity at 10000 µM: ATCC6380, read-out: relative %-respiratory activity
Excerpt: (§3) In this example, each microorganism is subjected to 22 different effector compounds in addition to control measurements. […] For each microorganism, duplicate measurements were made of 22 different effector compounds. In addition, duplicate measurements were made a control test containing no effector compound. One additional measurement was made of a control solution containing the microorganism with ferricyanide but without effector or DCIP.
(§4) In this example, each normalized data set containing duplicate measurements for each of 22 effector compounds is referenced to the duplicate internal controls to allow batch-to-batch comparison. The obtained signals of charge per unit electrode area for the duplicate control measurements are averaged and set at 100% respiratory cycle activity. […] The data set used to generate pattern recognition plots consists of 5 replicate batches (each batch containing duplicate measurements for each of 22 effector compounds) for each cell culture (10 strains). This is used to generate a 50 (columns)×22 (rows) matrix. The matrix is imported into MATLAB (Version 6.0). Factor analysis is performed using the MATLAB Chemometric Toolbox (Version 2.3) and involves the generation of reduced eigenvectors to determine the optimal number of factors, examination of the resulting residuals plots for randomness, and the generation of scores for the first four principle components.

E. faecalis [3] = assay: as above; format: cell-based, Enterococcus faecalis; settings: Enterococcus faecalis; for activity at 20000 µM: effector 20 mM; for activity at 10000 µM: read-out: relative %-respiratory activity
Excerpt: as §3, §4

E. aerogenes ATCC13048e = assay: as above; format: cell-based, Enterobacter aerogenes; settings: Klebsiella aerogenes, ATCC13048E; for activity at 20000 µM: effector 20 mM; for activity at 10000 µM: read-out: relative %-respiratory activity
Excerpt: as §3, §4

E. coli B = assay: as above; format: cell-based; settings: Escherichia coli, 5 μM DCIP, no effector = 100%, n = 10; for activity at 20000 µM: effector 20 mM; for activity at 10000 µM: effector 10 mM, read-out: relative %-respiratory activity
Excerpt: as §3, §4

E. coli HB101 = assay: as above; format: cell-based; settings: Escherichia coli; for activity at 20000 µM: effector 20 mM; for activity at 10000 µM: HB101, read-out: relative %-respiratory activity
Excerpt: as §3, §4

E. coli JM105 = assay: as above; format: cell-based; settings: Escherichia coli; for activity at 20000 µM: effector 20 mM; for activity at 10000 µM: JM105, read-out: relative %-respiratory activity
Excerpt: as §3, §4

E. coli Neotype = assay: as above; format: cell-based; settings: Escherichia coli; for activity at 20000 µM: effector 20 mM; for activity at 10000 µM: read-out: relative %-respiratory activity
Excerpt: as §3, §4

P. aeruginosa = assay: as above; format: cell-based, Pseudomonas aeruginosa; settings: Pseudomonas aeruginosa; for activity at 20000 µM: effector 20 mM; for activity at 10000 µM: read-out: relative %-respiratory activity
Excerpt: as §3, §4

S. aureus ATCC6538P = assay: as above; format: cell-based, Staphylococcus aureus; settings: Staphylococcus aureus, ATCC6538P; for activity at 20000 µM: effector 20 mM; for activity at 10000 µM: read-out: relative %-respiratory activity
Excerpt: as §3, §4

S. cerevisiae = assay: as above; format: cell-based, Saccharomyces cerevisiae; settings: Saccharomyces cerevisiae; for activity at 20000 µM: effector 20 mM; for activity at 10000 µM: read-out: relative %-respiratory activity
Excerpt: as §3, §4

Gram-positive bacteria = settings: effector 1 mM instead of 1 mM glucose, relative to + DCIP
Description: The following steps are used for each test: (1) preheating for a fixed time (4 min) and a fixed temperature (35° C.) a 150 μL aliquot of buffer containing 1 mM glucose (glc) with or without 5 μM DCIP; (2) this is followed by the addition of 50 μL of the bacterial suspension to the sample for a fixed time (10 min) and at a fixed temperature (35° C.); (3) this is followed by the addition of the mediator (50 μL of 0.4 M potassium ferricyanide) for a fixed time (10 min) and at a fixed temperature (35° C.); and (4) measurement of current at a fixed voltage difference (100 mV) between two platinum electrodes for a fixed time (120 sec) at a fixed temperature (35° C.). The final ferricyanide concentration in the sample prior to reaction with the microorganism is 40 mM.
In this configuration the assay uses two platinum electrodes each having a surface area of approximately 0.03 cm^2. The measured current depends on the concentration of the least-concentrated species of the redox-couple in solution. […] The magnitude of the measured current indicates the quantity of the reduced mediator present in the assay solution. The measured current is integrated over time to produce a plot of total charge against time. The change in total charge is measured between 30 and 120 seconds after the potential is applied. […]

[4] = ATCC6380, 5 μM DCIP, no effector = 100%, n = 20
[5] = 5 μM DCIP, no effector = 100%, n = 20
[6] = 5 μM DCIP, no effector = 100%, n = 26
[7] = HB101, 5 μM DCIP, no effector = 100%, n = 18
[8] = JM105, 5 μM DCIP, no effector = 100%, n = 10
[9] = 5 μM DCIP, no effector = 100%, n = 18
[10] = 5 μM DCIP, no effector = 100%, n = 10
[11] = effector 5 mM, 5 μM DCIP, no effector = 100%, n = 20
[12] = effector 5 mM, 5 μM DCIP, no effector = 100%, n = 26

Compound | activity at 20000 µM (P. vulgaris ATCC6380; [4]) [%] | activity at 20000 µM (E. faecalis [3]; [5]) [%] | activity at 20000 µM (E. aerogenes ATCC13048e; [6]) [%] | activity at 20000 µM (E. coli B) [%] | activity at 20000 µM (E. coli HB101; [7]) [%] | activity at 20000 µM (E. coli JM105; [8]) [%] | activity at 20000 µM (E. coli Neotype; [6]) [%] | activity at 20000 µM (P. aeruginosa; [9]) [%] | activity at 20000 µM (S. aureus ATCC6538P; [5]) [%] | activity at 20000 µM (S. cerevisiae; [10]) [%] | activity at 10000 µM (P. vulgaris ATCC6380) [%] | activity at 10000 µM (E. faecalis [3]) [%] | activity at 10000 µM (E. aerogenes ATCC13048e) [%] | activity at 10000 µM (E. coli B) [%] | activity at 10000 µM (E. coli HB101) [%] | activity at 10000 µM (E. coli JM105) [%] | activity at 10000 µM (P. aeruginosa) [%] | activity at 10000 µM (S. aureus ATCC6538P) [%] | activity at 10000 µM (S. cerevisiae) [%] | other results
O=C[C@@H](O)[C@@H](O)[C@H](O)[C@H](O)CO [D-mannose] | 250 | 654 | 296 | 152 | 222 | 212 | 139 | 108 | 262 | 125 |  |  |  |  |  |  |  |  |  | Slope data ([1]; substrate 1 mM): 16.6 μC/min; Slope data ([1]; substrate 10 mM): 14.0 μC/min; Slope data ([1]; substrate 50 mM): 15.1 μC/min; Slope data (E. faecalis [2]; substrate 1 mM): 17.8 μC/min; Slope data (E. faecalis [2]; substrate 10 mM): 19.6 μC/min; Slope data (E. faecalis [2]; substrate 50 mM): 14.5 μC/min; respiratory signals in the absence of 5 μM DCIP (Gram-positive bacteria): below 60%
N=C(N)NCCC[C@H](N)C(=O)O [L-arginine] |  |  |  |  |  |  |  |  |  |  | 149 | 130 | 129 | 137 | 114 | 163 | 155 | 132 | 139 | slope ([1]; effector 10 mM, 5 μM DCIP, 50 mM ferricyanide, 35° C.): 9.1 μC/min; normalized slope ([1]; effector 10 mM, area normalized): 5.3 μC/min*mm^2; relative activity ([1]; effector 10 mM, buffer set as 100%): 100%; activity at 10000 µM (E. coli Neotype; effector 10 mM, 5 μM DCIP, no effector = 100%, n = 26): 114%
NCCC[C@H](N)C(=O)O [L-ornithine] |  |  |  |  |  |  |  |  |  |  |  |  |  |  |  |  |  |  |  | activity at 5000 µM (P. vulgaris ATCC6380; ATCC6380, effector 5 mM, 5 μM DCIP, no effector = 100%, n = 20): 151%; activity at 5000 µM (E. faecalis [3]; [11]): 138%; activity at 5000 µM (E. aerogenes ATCC13048e; [12]): 142%; activity at 5000 µM (E. coli B; effector 5 mM): 135%; activity at 5000 µM (E. coli HB101; HB101, effector 5 mM, 5 μM DCIP, no effector = 100%, n = 18): 114%; activity at 5000 µM (E. coli JM105; JM105, effector 5 mM, 5 μM DCIP, no effector = 100%, n = 10): 165%; activity at 5000 µM (E. coli Neotype; [12]): 134%; activity at 5000 µM (P. aeruginosa; effector 5 mM, 5 μM DCIP, no effector = 100%, n = 18): 148%; activity at 5000 µM (S. aureus ATCC6538P; [11]): 154%; activity at 5000 µM (S. cerevisiae; effector 5 mM, 5 μM DCIP, no effector = 100%, n = 10): 137%
C[C@H](O)[C@H](O)[C@@H](O)[C@@H](O)C=O [L-rhamnose] | 145 | 105 | 110 | 119 | 103 | 116 | 105 | 94 | 101 | 124 |  |  |  |  |  |  |  |  |  | 
N[C@@H](Cc1c[nH]c2ccccc12)C(=O)O [L-tryptophan] |  |  |  |  |  |  |  |  |  |  | 521 | 232 | 126 | 98 | 129 | 133 | 170 | 139 | 188 | activity at 10000 µM (E. coli Neotype): 93%
